Legend:
[1] = test system: telomeric G-quadruplex DNA AGGG(TTAGGG)3; experiment: UV-Vis absorption titration, Scatchard plot and molar ratio method; format: binding, human; conditions: Scatchard plot of UV-Vis titration, Tris-KCl buffer pH 7.4
Method: Telomeric G-quadruplex DNA was prepared by heating gently 2.0 ml of stock single stranded 5′-[…]-3′ DNA (SEQ ID NO: 1) up to 95.0° C. Resultant solution was incubated at 95.0° C. for 10 min. The solution was left to cool gently down to room temperature, then kept in fridge at 4.0° C. overnight before use. A 10^−5 M fluorescein labeled G-quadruplex DNA was prepared similarly using 5′-Flu-telomeric DNA.
Successive amounts of G-quadruplex DNA (AGGG(TTAGGG)3, 1.44×10^−4 M) were added to 1.00 ml of each BQ (5×10^−6 M) in Tris-KCl buffer, pH 7.4. Solution was shacked well after each addition, incubated for 3 min at room temperature and its absorbance was scanned in the range 200-600 nm. Titration was stopped when no change in absorbance was observed. The experiment was reversed by adding successive amounts of the each BQ (1×10^−3 M) to 1.0 ml of 4×10^−6 M G-quadruplex DNA.
The molar ratio method based on measuring UV-Vis absorption was used for determining stoichiometry of G-quadruplex DNA interactions with BQs. A 1.00 ml BQs (5×10^−6 M) was titrated with telomere G-quadruplex (1.44×10^−4 M) in Tris-KCl buffer, pH 7.4. […] A plot of absorbance versus molar ratio [BQs]/[DNA] was constructed. […]
where Af, A and Ab are the absorbance at zero addition, after each addition and at saturation, respectively. […]

[2] = test system: telomeric G-quadruplex DNA; experiment: Melting temperature curves by CD, G-quadruplex-BQs complexes; format: binding, human; conditions: for Tm of G-quadruplex-BQ complex / ΔTm of G-quadruplex-BQ complex: CD, equimolar BQ, Tris-KCl buffer pH 7.4; for selectivity towards G-quadruplex over ct-DNA: from differences between ΔTm (G-quadruplex) and ΔTm (ct-DNA)
Method: (§1) Melting temperature curves for telomere G-quadruplex, ct-DNA and their BQs' adducts were constructed using CD spectral measurements. A 1.0 ml telomeric G-quadruplex (3.93×10^−6 M) or ct-DNA (100.00 ppm) in Tris-KCl-buffer, pH 7.4 was heated in the range 25-95° C. applying 2.0-5.0° C. increments and using 5 min incubation time intervals. The CD spectra in the range 200-400 nm were recorded at each temperature using the scan parameters described in previous section. BQs complexes with G-quadruplex or ct-DNA were prepared by mixing equimolar amounts of G-quadruplex (1.44×10^−4 M) with BQs (1×10^−4 M) or ct-DNA (1000 ppm) with BQs (1×10^−4 M) solution in 1.0 ml KCl-buffer pH 7.4. Solutions were incubated for 30 min before scan. Collected CD spectra were smoothed and baseline corrected against blank solution. Intensities of CD peaks for G-quadruplex, ct-DNA and their BQs' complexes at 293 and 282 nm were recorded. Plots of CD intensities versus temperature were constructed.

[3] = test system: ct-DNA (calf thymus DNA); experiment: Melting temperature curves by CD, ct-DNA-BQs complexes; format: binding; conditions: Tris-KCl buffer pH 7.4
Method: Calf thymus ds-DNA (1000 μg/ml; 8×10^−8 M) was prepared by dissolving 10.0 mg of DNA into 10.0 ml Tris-KCl buffer, pH 7.4, without sonication or stirring. To prevent shearing of the large genomic DNA, the solution was gently inverted overnight at 4.0° C. to completely solubilize the DNA. Solutions of DNA are stable for several months at 4.0° C. in Tris-KCl buffer pH 7-8.
as §1, with “scan.” for “scan. Collected CD spectra were smoothed and baseline corrected against blank solution. Intensities of CD peaks for G-quadruplex, ct-DNA and their BQs' complexes at 293 and 282 nm were recorded. Plots of CD intensities versus temperature were constructed.”
Collected CD spectra were smoothed and baseline corrected against blank solution. Intensities of CD peaks for G-quadruplex, ct-DNA and their BQs' complexes at 293 and 282 nm were recorded. Plots of CD intensities versus temperature were constructed.

[4] = test system: prostate cancer cells (C42B); experiment: MTT cell viability assay, C42B; format: cell-based, human; conditions: for IC50: Homo sapiens, 72 hrs; for loss of cell viability: 72 hours, BQs 1.0-25.0 μM, relative to control (DMSO)
Method: (§2) Human cancer cell lines were purchased from Hyclone Laboratories, Utah, USA. Pancreatic cancer cells (L3.6pl and MiaPaCa-2) and breast cancer cells (MCF-7) were maintained in DMEM while lung cancer cells (H1299) and prostate cancer cells (C42B) were maintained in RPMI 1640 media. All media were supplemented with antibiotics (penicillin 50 U/ml; streptomycin 50 μg/ml) and 10% fetal bovine serum (FBS, Biowest, Nouaille, France).
(§3) BQs were tested for their antiprolifrative activity in vitro using MTT assay on human pancreatic cancer cells (L3.6pl and MiaPaCa-2), human lung cancer cells (H1299), human breast cancer cells (MCF-7) and human prostate cancer cells (C42B).
(§4) The cell viability test was conducted by seeding pancreatic (L3.6pl and MiaPaCa-2), lung (H1299), breast (MCF-7) and prostate (C42B) cancer cells into 96-well culture plates at a density of 3×10^3 cells per well. Cells were then exposed to increasing doses (0-25 μM) of BQs for 72 hrs and MTT assay was performed using thymoquinone as a positive control in all experiments. The results were plotted as means±SD of at least three separate experiments using six determinations per experiment. Data were presented as proportional viability (%) by comparing the treated group with the untreated cells whose viability is assumed to be 100%. IC50s of the BQs were estimated from the linear plots of concentrations versus cell viabilities.

[5] = test system: pancreatic cancer cells (MiaPaCa-2); experiment: MTT cell viability assay, MiaPaCa-2; format: cell-based, human; conditions: for IC50: Homo sapiens, MIA PaCa-2, MiaPaCa-2, 72 hrs
Method: as §2, §3, §4

[6] = test system: lung cancer cells (H1299); experiment: MTT cell viability assay, H1299; format: cell-based, human; conditions: for inhibition in cell viability: H1299, 72 hours, BQs 1.0-25.0 μM, relative to control (DMSO)
Method: as §2, §3, §4

[7] = test system: pancreatic cancer cells (L3.6pl); experiment: MTT cell viability assay, L3.6pl; format: cell-based, human
Method: as §2, §3, §4

[8] = test system: breast cancer cells (MCF-7); experiment: MTT cell viability assay, MCF-7; format: cell-based, human; conditions: for loss of cell viability: MCF-7, 72 hours, BQs 1.0-25.0 μM, relative to control (DMSO)
Method: as §2, §3, §4

[9] = test system: examined cancer cell lines; experiment: MTT cell viability assay, cell line not given (panel); format: cell-based; conditions: Homo sapiens; cell line not specified
Method: as §2, §3, §4

## O=C1C=C(Nc2cccc(C(F)(F)F)c2)C(=O)C=C1Nc1cccc(C(F)(F)F)c1 [BQ1, 2,5-bis-(3-trifluoromethylanilino)-1,4-benzoquinone]
other
  melting point: 280 to 282.5 °C
[1]
  binding constant (K) towards G-quadruplex DNA: 728000 M⁻¹
[2]
  Tm of G-quadruplex-BQ complex: 75.5 °C
  ΔTm of G-quadruplex-BQ complex: 7.5 °C
[3]
  Melting temperature shift (ΔTm) of ct-DNA on BQ binding: 5.8 °C
[4]
  IC50: 43.2 µM

## O=C1C=C(Nc2cc(F)c(F)c(F)c2)C(=O)C=C1Nc1cc(F)c(F)c(F)c1 [BQ2, 2,5-bis-(3,4,5-trifluoroanilino)-1,4-benzoquinone]
other
  melting point: > 350 °C

## COc1ccc(NC2=CC(=O)C(Nc3ccc(OC)cc3)=CC2=O)cc1 [BQ3, 2,5-bis-(4-methoxylanilino)-1,4-benzoquinone]
other
  melting point: 323 to 325 °C
[2]
  selectivity towards G-quadruplex over ct-DNA: low selectivity
[2]; stabilized both G-quadruplex and ct-DNA
  ΔTm, G-quadruplex versus ct-DNA: ~0.2 °C
[3]
  Melting temperature shift (ΔTm) of ct-DNA on BQ binding: 3.8 °C
[5]
  IC50: 7.68 µM

## O=C1C=C(Nc2ccc(F)cc2)C(=O)C=C1Nc1ccc(F)cc1 [BQ4, 2,5-bis-(4-fluoroanilino)-1,4-benzoquinone]
other
  melting point: > 350 °C
[6]; Homo sapiens, NCI-H1299, H1299, 72 hrs
  IC50: 7.48 µM
[2]
  Tm of G-quadruplex-BQ complex: 68.1 °C
  ΔTm of G-quadruplex-BQ complex: 0.1 °C

## O=C1C=C(Nc2ccccc2)C(=O)C=C1Nc1ccccc1 [BQ5, 2,5-bis-anilino-1,4-benzoquinone]
other
  melting point: 342 to 345 °C
[2]; listed as BQS
  selectivity towards G-quadruplex over ct-DNA: 3.5 folds
[4]
  loss of cell viability: 27.25%
  IC50: 42.1 µM

## O=C1C=C(NCCN2CCOCC2)C(=O)C=C1NCCN1CCOCC1 [BQ7, 2,5-bis((2-morpholinoethyl)amino)-1,4-benzoquinone]
other
  melting point: 184 to 188 °C
[6]
  inhibition in cell viability: 20.81%
[5]; MiaPaCa-2, 72 hours, BQs 1.0-25.0 μM, relative to control (DMSO)
  loss in cell viability: 7.53%
[4]
  loss of cell viability: 1.29%

## O=C1C=C(NC2CCCC2)C(=O)C=C1NC1CCCC1 [BQ8, 2,5-bis-(cyclopentylamino)-1,4-benzoquinone]
other
  melting point: 289 to 291 °C
[7]; 72 hours, BQs 1.0-25.0 μM, relative to control (DMSO)
  inhibition in cell viability: 26.97%

## O=C1C=C(NCCN2CCCC2)C(=O)C=C1NCCN1CCCC1 [BQ9, 2,5-bis((2-(pyrrolidin-1-yl)ethyl)amino)-1,4-benzoquinone]
[8]
  loss of cell viability: 92.50%
other
  melting point: 159 to 162 °C
[6]
  inhibition in cell viability: 84.40%
[9]
  IC50: < 10 µM

## O=C1C=C(NCc2ccc(C(F)(F)F)cc2)C(=O)C=C1NCc1ccc(C(F)(F)F)cc1 [BQ10, 2,5-bis-(4-trifluoromethylbenzylamino)-1,4-benzoquinone]
[8]; Homo sapiens, MCF7, MCF-7, 72 hrs
  IC50: 8.04 µM
other
  melting point: 271 to 274 °C
[9]
  IC50: < 10 µM

## O=C1C=C(NCc2ccc(F)cc2)C(=O)C=C1NCc1ccc(F)cc1 [BQ11, 2,5-bis-(4-fluorobenzylamino)-1,4-benzoquinone]
other
  melting point: 248 to 250 °C
[2]
  Tm of G-quadruplex-BQ complex: lowest
[5]
  IC50: 6.18 µM
[7]; Homo sapiens, 72 hrs
  IC50: 9.67 µM
[9]
  IC50: < 10 µM

## COc1ccc(CNC2=CC(=O)C(NCc3ccc(OC)c(OC)c3)=CC2=O)cc1OC [BQ12, 2,5-bis-(3,4-dimethoxybenzylamino)-1,4-benzoquinone]
[8]
  loss of cell viability: 24.16%
other
  melting point: 256.5 to 258.5 °C

## O=C1C=C(NCc2ccccc2)C(=O)C=C1NCc1ccccc1 [BQ13, 2,5-bis-(benzylamino)-1,4-benzoquinone]
other
  melting point: 254.5 to 256 °C

## O=C1C=C(NCc2cc(C(F)(F)F)cc(C(F)(F)F)c2)C(=O)C=C1NCc1cc(C(F)(F)F)cc(C(F)(F)F)c1 [BQ14, 2,5-bis-(3,5-ditrifluoromethylbenzylamino)-1,4-benzoquinone]
other
  melting point: 237 to 239 °C

Reference: patent publication US20200010413A1, “Benzoquinone derivatives for treatment of cancer and methods of making the benzoquinone derivatives” (United Arab Emirates University, priority 2016, published 2020)
